Target: Maltase-glucoamylase (Homo sapiens, UniProt O43451)
Assay: Inhibition of alpha-glucosidase (unknown origin) using p-nitrophenyl-alpha-D-glucopyranoside as substrate incubated for 30 mins by spectrophotometric analysis

Maltase-glucoamylase, sequence (O43451 whole entry): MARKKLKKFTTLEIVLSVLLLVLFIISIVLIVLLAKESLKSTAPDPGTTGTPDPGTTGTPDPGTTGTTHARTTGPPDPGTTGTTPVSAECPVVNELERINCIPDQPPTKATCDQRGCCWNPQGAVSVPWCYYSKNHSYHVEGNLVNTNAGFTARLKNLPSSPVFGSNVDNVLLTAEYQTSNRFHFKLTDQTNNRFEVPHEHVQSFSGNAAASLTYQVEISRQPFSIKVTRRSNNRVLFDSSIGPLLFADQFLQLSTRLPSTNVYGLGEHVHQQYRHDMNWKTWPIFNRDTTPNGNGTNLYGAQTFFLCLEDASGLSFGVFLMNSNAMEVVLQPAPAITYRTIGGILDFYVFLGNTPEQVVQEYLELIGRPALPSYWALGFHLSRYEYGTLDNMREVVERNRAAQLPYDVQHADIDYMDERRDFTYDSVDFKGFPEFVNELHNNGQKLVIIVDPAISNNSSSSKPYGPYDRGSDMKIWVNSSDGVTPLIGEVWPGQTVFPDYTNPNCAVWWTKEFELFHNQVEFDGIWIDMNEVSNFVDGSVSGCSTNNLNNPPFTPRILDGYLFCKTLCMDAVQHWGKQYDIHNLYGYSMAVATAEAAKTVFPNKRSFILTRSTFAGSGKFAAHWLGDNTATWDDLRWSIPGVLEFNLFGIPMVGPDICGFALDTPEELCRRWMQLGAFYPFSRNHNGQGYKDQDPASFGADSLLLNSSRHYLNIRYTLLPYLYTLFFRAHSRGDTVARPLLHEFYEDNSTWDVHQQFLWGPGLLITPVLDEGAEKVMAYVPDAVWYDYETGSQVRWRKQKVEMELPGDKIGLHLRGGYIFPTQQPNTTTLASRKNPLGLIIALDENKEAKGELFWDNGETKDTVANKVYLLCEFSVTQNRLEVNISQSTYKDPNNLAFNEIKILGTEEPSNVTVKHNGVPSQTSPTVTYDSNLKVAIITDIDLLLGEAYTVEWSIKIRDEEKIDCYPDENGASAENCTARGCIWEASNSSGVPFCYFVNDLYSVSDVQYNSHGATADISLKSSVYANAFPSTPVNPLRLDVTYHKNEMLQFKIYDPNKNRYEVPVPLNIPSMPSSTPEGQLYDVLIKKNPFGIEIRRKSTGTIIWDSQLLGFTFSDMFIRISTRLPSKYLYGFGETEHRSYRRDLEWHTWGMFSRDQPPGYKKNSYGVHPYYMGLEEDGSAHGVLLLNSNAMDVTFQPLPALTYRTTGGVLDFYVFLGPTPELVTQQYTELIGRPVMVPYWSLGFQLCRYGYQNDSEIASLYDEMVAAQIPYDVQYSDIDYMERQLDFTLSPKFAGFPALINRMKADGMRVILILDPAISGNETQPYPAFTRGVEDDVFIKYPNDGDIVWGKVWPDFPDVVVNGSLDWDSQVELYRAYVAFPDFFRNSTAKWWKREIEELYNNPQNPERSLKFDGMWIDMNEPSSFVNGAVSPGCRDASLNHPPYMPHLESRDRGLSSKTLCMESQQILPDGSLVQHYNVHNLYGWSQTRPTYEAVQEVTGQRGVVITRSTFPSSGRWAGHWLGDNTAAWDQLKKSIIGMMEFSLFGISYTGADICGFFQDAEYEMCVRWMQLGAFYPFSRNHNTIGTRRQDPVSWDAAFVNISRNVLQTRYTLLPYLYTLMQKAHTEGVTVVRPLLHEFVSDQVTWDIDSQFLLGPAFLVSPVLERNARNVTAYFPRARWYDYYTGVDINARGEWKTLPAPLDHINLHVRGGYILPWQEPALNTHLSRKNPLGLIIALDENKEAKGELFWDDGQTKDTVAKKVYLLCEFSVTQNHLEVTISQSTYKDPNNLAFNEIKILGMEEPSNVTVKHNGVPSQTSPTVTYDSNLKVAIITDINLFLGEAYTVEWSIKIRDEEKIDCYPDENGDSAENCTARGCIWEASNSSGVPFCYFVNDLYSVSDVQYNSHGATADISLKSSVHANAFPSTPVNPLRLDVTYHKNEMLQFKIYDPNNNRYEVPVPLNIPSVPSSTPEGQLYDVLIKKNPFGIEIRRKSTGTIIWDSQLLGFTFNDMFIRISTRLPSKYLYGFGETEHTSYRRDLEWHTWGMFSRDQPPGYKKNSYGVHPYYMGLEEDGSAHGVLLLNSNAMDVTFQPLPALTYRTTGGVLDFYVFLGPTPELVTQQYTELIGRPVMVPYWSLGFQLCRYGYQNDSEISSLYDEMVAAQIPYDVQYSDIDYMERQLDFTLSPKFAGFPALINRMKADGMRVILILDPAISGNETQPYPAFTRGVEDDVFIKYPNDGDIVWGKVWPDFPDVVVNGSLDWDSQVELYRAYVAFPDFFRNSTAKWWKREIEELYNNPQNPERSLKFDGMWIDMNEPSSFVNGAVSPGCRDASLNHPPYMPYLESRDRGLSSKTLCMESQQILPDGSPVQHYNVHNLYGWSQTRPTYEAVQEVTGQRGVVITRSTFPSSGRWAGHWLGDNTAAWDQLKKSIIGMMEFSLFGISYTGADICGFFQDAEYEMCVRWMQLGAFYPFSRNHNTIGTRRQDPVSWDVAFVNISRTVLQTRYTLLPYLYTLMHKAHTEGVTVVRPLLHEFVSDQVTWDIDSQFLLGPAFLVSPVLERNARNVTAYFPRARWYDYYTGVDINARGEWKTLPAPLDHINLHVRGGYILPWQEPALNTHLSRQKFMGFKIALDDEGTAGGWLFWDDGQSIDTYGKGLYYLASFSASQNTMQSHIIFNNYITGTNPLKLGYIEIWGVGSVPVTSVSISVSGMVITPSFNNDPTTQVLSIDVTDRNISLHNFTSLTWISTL

CC(C)=CCC/C(C)=C/Cc1c(O)cc(O)c(C(=O)/C=C/c2ccc(O)cc2)c1O
IC50: 1080 nM

— BindingDB's records for PubMed 29751237 (University of Kwazulu-Natal, 2018)
